Earlier results on one compound are cited in patent EP4286484B1, “AQUEOUS PRETREATMENT LIQUID, INK SET, PRINTED ITEM, AND SEPARATION METHOD” (priority 2022, dated 2023).

SMILES strings stand for the structures.

The conditions of this data set: anhydrous calcium salt of the named counter anion.

Take `O=C([O-])c1ccccc1.O=C([O-])c1ccccc1.[Ca+2]` [benzoate ion]: the “solubility of the corresponding anhydrous calcium salt in 100 g of water at 20°C” value is 2 g.
